Reference: PubChem BioAssay AID1312 (NMMLSC, 2008)
Activity calls are given as the source filed them.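 How the source made its calls: active means area under the green fluorescent protein level over time curve over 15% above untreated cells; inactive means the rest.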 Peptide text beside a SMILES is read from it. * marks the point of attachment. Cbz = O=C(OCc1ccccc1)*

Test system: S. cerevisiae Sic1-GFP degradation, flow cytometry time course
Assay: degradation of ubiquitination-site mutant Sic1-GFP in yeast, confirmation, mechanism study for 26S proteasome disassembly project, flow cytometry, Sic1MUS mutant, S. cerevisiae (AID 1312)

Structure (SMILES) | outcome
CC(=O)N1C(=O)C(=C2C=C(C)OC(C)=C2)c2ccccc21 | active; degradation inhibitor
CC(C)C[C@@H](C=O)NC(=O)[C@H](CC(C)C)NC(=O)[C@H](CC(C)C)NC(=O)OCc1ccccc1 (Cbz-Leu-Leu-Leu-aldehyde) | inactive
